Measurements taken from patent US11919899B2, “Substituted 1-(3,3-difluoropiperidin-4-yl)-imidazo[4,5-c] quinolin-2-one compounds with blood-brain barrier penetrable capability” (priority 2020, dated 2024).

Tests used:
[1] = Blood-brain barrier penetration (brain tissue to plasma concentration ratio); format: in vivo; conditions: ratio of concentration in brain tissue to plasma; rats or mice, four hours after dosing
Procedure: Four hours after dosing, rats or mice were sacrificed, blood and brain tissue were collected and the concentration of the test compound was analyzed. Brain permeation is defined as the ratio of the concentration of the compound in the brain tissue to the concentration in the plasma. P-glycoprotein and BCRP (Breast Cancer Resistance Protein) are the blood-brain barrier efflux proteins, the P-glycoprotein substrate (Efflux ratio>1.5) and/or BCRP substrate (Efflux ratio>1.5) is out of the brain.

P-glycoprotein = P-glycoprotein (Homo sapiens, UniProt P08183); test: P-glycoprotein efflux substrate; format: in vitro ADME; conditions: not told
BCRP = biological target: T1, BCRP (Homo sapiens, UniProt Q9UNQ0); test: BCRP efflux substrate; format: in vitro ADME; conditions: not told
T1 sequence (Q9UNQ0 1-655): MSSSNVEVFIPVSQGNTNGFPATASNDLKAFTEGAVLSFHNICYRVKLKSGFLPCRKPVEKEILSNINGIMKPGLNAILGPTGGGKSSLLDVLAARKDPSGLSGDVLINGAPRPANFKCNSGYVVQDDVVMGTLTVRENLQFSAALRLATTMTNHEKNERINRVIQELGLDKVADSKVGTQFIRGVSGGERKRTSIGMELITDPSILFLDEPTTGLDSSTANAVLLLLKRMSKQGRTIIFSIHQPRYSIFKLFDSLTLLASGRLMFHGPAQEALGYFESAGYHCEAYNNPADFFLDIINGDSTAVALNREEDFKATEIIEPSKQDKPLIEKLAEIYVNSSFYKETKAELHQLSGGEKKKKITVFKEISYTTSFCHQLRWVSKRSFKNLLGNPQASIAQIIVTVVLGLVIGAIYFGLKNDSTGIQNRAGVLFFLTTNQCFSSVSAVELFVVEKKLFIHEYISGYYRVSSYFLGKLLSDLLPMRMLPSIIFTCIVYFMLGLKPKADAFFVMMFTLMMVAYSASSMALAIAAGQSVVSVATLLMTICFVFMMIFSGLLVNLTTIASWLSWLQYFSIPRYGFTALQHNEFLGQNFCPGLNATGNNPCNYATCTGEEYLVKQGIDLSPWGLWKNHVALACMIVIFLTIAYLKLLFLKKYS

Sequence of P-glycoprotein (P08183 whole entry): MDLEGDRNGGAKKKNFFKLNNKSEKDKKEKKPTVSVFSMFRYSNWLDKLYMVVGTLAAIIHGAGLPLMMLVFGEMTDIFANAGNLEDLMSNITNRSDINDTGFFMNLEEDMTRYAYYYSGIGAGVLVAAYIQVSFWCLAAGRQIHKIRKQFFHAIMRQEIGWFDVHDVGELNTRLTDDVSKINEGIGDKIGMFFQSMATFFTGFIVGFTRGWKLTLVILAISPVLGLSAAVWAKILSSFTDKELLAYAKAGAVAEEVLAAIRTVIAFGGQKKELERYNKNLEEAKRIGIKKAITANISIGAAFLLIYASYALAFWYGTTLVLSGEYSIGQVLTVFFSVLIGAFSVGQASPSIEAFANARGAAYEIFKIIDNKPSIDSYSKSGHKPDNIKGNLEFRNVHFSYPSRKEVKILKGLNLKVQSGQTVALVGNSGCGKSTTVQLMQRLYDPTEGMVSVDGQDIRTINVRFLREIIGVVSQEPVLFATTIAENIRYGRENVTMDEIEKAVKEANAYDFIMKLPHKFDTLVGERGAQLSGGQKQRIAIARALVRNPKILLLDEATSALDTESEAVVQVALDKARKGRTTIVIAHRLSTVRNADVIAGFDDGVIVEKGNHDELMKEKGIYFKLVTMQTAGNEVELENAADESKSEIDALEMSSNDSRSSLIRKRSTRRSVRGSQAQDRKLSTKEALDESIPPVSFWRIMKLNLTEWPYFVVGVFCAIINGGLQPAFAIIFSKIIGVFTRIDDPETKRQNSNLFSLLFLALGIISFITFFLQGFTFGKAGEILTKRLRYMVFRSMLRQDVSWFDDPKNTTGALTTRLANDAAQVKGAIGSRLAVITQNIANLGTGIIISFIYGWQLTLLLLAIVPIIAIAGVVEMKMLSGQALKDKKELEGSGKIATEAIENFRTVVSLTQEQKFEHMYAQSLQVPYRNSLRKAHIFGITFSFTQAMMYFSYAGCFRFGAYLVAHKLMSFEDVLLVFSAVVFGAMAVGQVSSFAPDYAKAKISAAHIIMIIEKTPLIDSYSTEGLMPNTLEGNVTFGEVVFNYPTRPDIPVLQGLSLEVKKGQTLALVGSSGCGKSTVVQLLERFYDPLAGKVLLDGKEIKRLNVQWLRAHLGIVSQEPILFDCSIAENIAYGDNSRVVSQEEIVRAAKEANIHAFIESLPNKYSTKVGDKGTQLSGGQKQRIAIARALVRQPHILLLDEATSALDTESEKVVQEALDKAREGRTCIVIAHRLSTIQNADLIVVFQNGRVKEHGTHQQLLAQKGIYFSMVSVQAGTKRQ

| Kp at 4 h [1] | efflux ratio (P-glycoprotein) | efflux ratio (BCRP) | SMILES |
| --- | --- | --- | --- |
| > 0.3 | < 1 | < 1 | COc1ccc(-c2cc3c(cc2F)ncc2c3n([C@H]3CCN(C)CC3(F)F)c(=O)n2C)cn1 [Compound 32, (S)-1-(3,3-difluoro-1-methylpiperidin-4-yl)-7-fluoro-8-(6-methoxypyridin-3-yl)-3-methyl-1,3-dihydro-2H-imidazo[4,5-c]quinolin-2-one] |
| > 0.3 | < 1 | < 1 | CC(C)Oc1ccc(-c2ccc3ncc4c(c3c2)n([C@H]2CCN(C)CC2(F)F)c(=O)n4C)cn1 [Compound 34, (S)-1-(3,3-difluoro-1-methylpiperidin-4-yl)-8-(6-isopropoxypyridin-3-yl)-3-methyl-1,3-dihydro-2H-imidazo[4,5-c]quinolin-2-one] |
| > 0.3 | < 1 | < 1 | CN1CC[C@H](n2c(=O)n(C)c3cnc4ccc(-c5ccc(N(C)C)nc5)cc4c32)C(F)(F)C1 [Compound 35, (S)-1-(3,3-difluoro-1-methylpiperidin-4-yl)-8-(6-(dimethylamino)pyridin-3-yl)-3-methyl-1,3-dihydro-2H-imidazo[4,5-c]quinolin-2-one] |
| > 0.3 | < 1 | < 1 | CN1CC[C@H](n2c(=O)n(C)c3cnc4ccc(-c5ccc(OC6CC6)nc5)cc4c32)C(F)(F)C1 [Compound 37, (S)-8-(6-cyclopropoxypyridin-3-yl)-1-(3,3-difluoro-1-methylpiperidin-4-yl)-3-methyl-1,3-dihydro-2H-imidazo[4,5-c]quinolin-2-one] |
| > 0.3 | < 1 | < 1 | CN1CC[C@H](n2c(=O)n(C)c3cnc4ccc(-c5ccc(N6CC(N(C)C)C6)nc5)cc4c32)C(F)(F)C1 [Compound 38, (S)-1-(3,3-difluoro-1-methylpiperidin-4-yl)-8-(6-(3-(dimethylamino)azetidin-1-yl)pyridin-3-yl)-3-methyl-1,3-dihydro-2H-imidazo[4,5-c]quinolin-2-one] |
| > 0.3 | < 1 | < 1 | CN1CC[C@H](n2c(=O)n(C)c3cnc4ccc(-c5ccc(N6C[C@@H]7[C@H]6CCN7C)nc5)cc4c32)C(F)(F)C1 [Compound 40] |
| > 0.3 | < 1 | < 1 | CN1CC[C@H](n2c(=O)n(C)c3cnc4ccc(-c5ccc(N6C[C@H]7[C@@H]6CCN7C)nc5)cc4c32)C(F)(F)C1 [Compound 41] |
